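These data come from cells grown in 96-well plates and exposed to compound for 48 hours at five concentrations. Here, GI50 denotes the concentration required for 50% inhibition of growth. The concentration for full growth arrest is given as TGI.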
Key:
Assay in all cases: NCI tumour cell line growth inhibition, 48 h
786-0 renal = test system: 786-0 renal
A498 renal = test system: A498 renal
A549 NSCLC = test system: A549 NSCLC
ACHN renal = test system: ACHN renal
BT-549 breast = test system: BT-549 breast
CAKI-1 renal = test system: CAKI-1 renal
CCRF-CEM leukemia = test system: CCRF-CEM leukemia
COLO 205 colon = test system: COLO 205 colon
DU-145 prostate = test system: DU-145 prostate
EKVX NSCLC = test system: EKVX NSCLC
HCC-2998 colon = test system: HCC-2998 colon
HCT-15 colon = test system: HCT-15 colon
HL-60(TB) leukemia = test system: HL-60(TB) leukemia
HOP-62 NSCLC = test system: HOP-62 NSCLC
HOP-92 NSCLC = test system: HOP-92 NSCLC
HS 578T breast = test system: HS 578T breast
HT29 colon = test system: HT29 colon
IGROV1 ovarian = test system: IGROV1 ovarian
K-562 leukemia = test system: K-562 leukemia
KM12 colon = test system: KM12 colon
LOX IMVI melanoma = test system: LOX IMVI melanoma
M14 melanoma = test system: M14 melanoma
MALME-3M melanoma = test system: MALME-3M melanoma
MCF7 breast = test system: MCF7 breast
MDA-MB-231 breast = test system: MDA-MB-231 breast
MDA-MB-435 = test system: MDA-MB-435
MOLT-4 leukemia = test system: MOLT-4 leukemia
NCI-H226 lung = test system: NCI-H226 lung
NCI-H23 lung = test system: NCI-H23 lung
NCI-H460 lung = test system: NCI-H460 lung
NCI-H522 lung = test system: NCI-H522 lung
NCI/ADR-RES ovarian = test system: NCI/ADR-RES ovarian
OVCAR-3 ovarian = test system: OVCAR-3 ovarian
OVCAR-4 ovarian = test system: OVCAR-4 ovarian
OVCAR-5 ovarian = test system: OVCAR-5 ovarian
OVCAR-8 ovarian = test system: OVCAR-8 ovarian
PC-3 prostate = test system: PC-3 prostate
RPMI-8226 leukemia = test system: RPMI-8226 leukemia
SF-268 CNS = test system: SF-268 CNS
SF-295 CNS = test system: SF-295 CNS
SF-539 CNS = test system: SF-539 CNS
SK-MEL-2 melanoma = test system: SK-MEL-2 melanoma
SK-MEL-28 melanoma = test system: SK-MEL-28 melanoma
SK-MEL-5 melanoma = test system: SK-MEL-5 melanoma
SK-OV-3 ovarian = test system: SK-OV-3 ovarian
SN12C renal = test system: SN12C renal
SNB-19 CNS = test system: SNB-19 CNS
SR leukemia = test system: SR leukemia
SW-620 colon = test system: SW-620 colon
T-47D breast = test system: T-47D breast
TK-10 renal = test system: TK-10 renal
U251 CNS = test system: U251 CNS
UACC-257 melanoma = test system: UACC-257 melanoma
UACC-62 melanoma = test system: UACC-62 melanoma
UO-31 renal = test system: UO-31 renal

Cc1ccc(S(=O)(=O)NCCCNc2nc(Nc3ccc(N4CCN(C)CC4)cc3)nc3ccsc23)cc1
GI50 (786-0 renal): 1.77 µM
TGI (786-0 renal): 3.42 µM
GI50 (A498 renal): 19.4 µM
TGI (A498 renal): 34.5 µM
GI50 (A549 NSCLC): 14.9 µM
TGI (A549 NSCLC): 31.5 µM
GI50 (ACHN renal): 12 µM
TGI (ACHN renal): 25.2 µM
GI50 (BT-549 breast): 3.56 µM
TGI (BT-549 breast): 16.4 µM
GI50 (CAKI-1 renal): 12.8 µM
TGI (CAKI-1 renal): 25.5 µM
GI50 (CCRF-CEM leukemia): 2.73 µM
TGI (CCRF-CEM leukemia): 22.9 µM
GI50 (COLO 205 colon): 13.1 µM
TGI (COLO 205 colon): 29.8 µM
GI50 (DU-145 prostate): 16.4 µM
TGI (DU-145 prostate): 40.6 µM
GI50 (EKVX NSCLC): 11.6 µM
TGI (EKVX NSCLC): 28.7 µM
GI50 (HCC-2998 colon): 5.34 µM
TGI (HCC-2998 colon): 17.8 µM
GI50 (HCT-15 colon): 2.07 µM
TGI (HCT-15 colon): 5.54 µM
GI50 (HL-60(TB) leukemia): 2.01 µM
TGI (HL-60(TB) leukemia): 5.18 µM
GI50 (HOP-62 NSCLC): 14.8 µM
TGI (HOP-62 NSCLC): 30.5 µM
GI50 (HOP-92 NSCLC): 1.94 µM
TGI (HOP-92 NSCLC): 11.6 µM
GI50 (HS 578T breast): 5.09 µM
TGI (HS 578T breast): 26.7 µM
GI50 (HT29 colon): 4.4 µM
TGI (HT29 colon): 18.4 µM
GI50 (IGROV1 ovarian): 7.35 µM
TGI (IGROV1 ovarian): 21.8 µM
GI50 (K-562 leukemia): 2.56 µM
TGI (K-562 leukemia): > 100 µM
GI50 (KM12 colon): 14.3 µM
TGI (KM12 colon): 47.9 µM
GI50 (LOX IMVI melanoma): 1.51 µM
TGI (LOX IMVI melanoma): 3.06 µM
GI50 (M14 melanoma): 1.6 µM
TGI (M14 melanoma): 3.13 µM
GI50 (MALME-3M melanoma): 1.79 µM
TGI (MALME-3M melanoma): 3.42 µM
GI50 (MCF7 breast): 3.52 µM
TGI (MCF7 breast): 13.8 µM
GI50 (MDA-MB-231 breast): 3.92 µM
TGI (MDA-MB-231 breast): 18.7 µM
GI50 (MDA-MB-435): 9.14 µM
TGI (MDA-MB-435): 21.3 µM
GI50 (MOLT-4 leukemia): 3.43 µM
TGI (MOLT-4 leukemia): 28.7 µM
GI50 (NCI-H226 lung): 8.46 µM
TGI (NCI-H226 lung): 21.8 µM
GI50 (NCI-H23 lung): 12.2 µM
TGI (NCI-H23 lung): 26.5 µM
GI50 (NCI-H460 lung): 13 µM
TGI (NCI-H460 lung): 27.8 µM
GI50 (NCI-H522 lung): 12.5 µM
TGI (NCI-H522 lung): 26.2 µM
GI50 (NCI/ADR-RES ovarian): 15.5 µM
TGI (NCI/ADR-RES ovarian): 41.9 µM
GI50 (OVCAR-3 ovarian): 10.2 µM
TGI (OVCAR-3 ovarian): 42.1 µM
GI50 (OVCAR-4 ovarian): 10.3 µM
TGI (OVCAR-4 ovarian): 44.2 µM
GI50 (OVCAR-5 ovarian): 11.9 µM
TGI (OVCAR-5 ovarian): 25.9 µM
GI50 (OVCAR-8 ovarian): 10.9 µM
TGI (OVCAR-8 ovarian): 29.7 µM
GI50 (PC-3 prostate): 5.55 µM
TGI (PC-3 prostate): 21.6 µM
GI50 (RPMI-8226 leukemia): 2.5 µM
TGI (RPMI-8226 leukemia): 8.04 µM
GI50 (SF-268 CNS): 9.87 µM
TGI (SF-268 CNS): 46 µM
GI50 (SF-295 CNS): 9.03 µM
TGI (SF-295 CNS): 21.6 µM
GI50 (SF-539 CNS): 2.16 µM
TGI (SF-539 CNS): 5.78 µM
GI50 (SK-MEL-2 melanoma): 15.1 µM
TGI (SK-MEL-2 melanoma): 29 µM
GI50 (SK-MEL-28 melanoma): 6.5 µM
TGI (SK-MEL-28 melanoma): 19.4 µM
GI50 (SK-MEL-5 melanoma): 12.9 µM
TGI (SK-MEL-5 melanoma): 25.6 µM
GI50 (SK-OV-3 ovarian): 27.1 µM
TGI (SK-OV-3 ovarian): 77.8 µM
GI50 (SN12C renal): 13.6 µM
TGI (SN12C renal): 28 µM
GI50 (SNB-19 CNS): 15.9 µM
TGI (SNB-19 CNS): 32.4 µM
GI50 (SR leukemia): 2.84 µM
TGI (SR leukemia): > 100 µM
GI50 (SW-620 colon): 12.5 µM
TGI (SW-620 colon): 28 µM
GI50 (T-47D breast): 13.3 µM
TGI (T-47D breast): 37.2 µM
GI50 (TK-10 renal): 17.7 µM
TGI (TK-10 renal): 40.3 µM
GI50 (U251 CNS): 3.83 µM
TGI (U251 CNS): 18.7 µM
GI50 (UACC-257 melanoma): 2.19 µM
TGI (UACC-257 melanoma): 5.83 µM
GI50 (UACC-62 melanoma): 11.5 µM
TGI (UACC-62 melanoma): 23.6 µM
GI50 (UO-31 renal): 7.94 µM
TGI (UO-31 renal): 23.8 µM

— PubChem BioAssay (NCI)
